From patent publication US8067382B2, “Anthelmintic composition” (Merial Limited, priority 2002, dated 2011)

How the values were obtained:
liver flukes = conditions: background statement; cited from earlier work
[1] = Stability trial of Formulation 1 stored at ambient for 11 months, HPLC assay of actives; format: physicochemical
Experimental: A stability trial was conducted to ensure that the triclabendazole solution was stable. A formulation made as described in example 1 (“Formulation 1”) was stored at ambient for 11 months. At the conclusion of the storage period samples were tested for total abamectin and triclabendazole levels. [table]

[2] = background statement; cited from earlier work

Compound	Efficacy against liver flukes by life cycle stage (liver flukes)	Loss in activity after storage [1]	Physical stability of the solution after storage [1]	Solubility [2]
CCCSc1ccc2nc(NC(=O)OC)[nH]c2c1 [Albendazole]	only effective against adult flukes			
CSc1nc2cc(Cl)c(Oc3cccc(Cl)c3Cl)cc2[nH]1 [triclabendazole, 5-Chloro-6-(2,3-dichlorophenoxy)-2-methylthio-1H-benzimidazole]	highly effective against liver flukes at all stages of their life cycle	no loss in activity	remained in solution	highly insoluble
Abamectin		no loss in activity		
